Publication PMC10233710 (ChemMedChem, 2023)
Where two headings read alike, the source gives them in different places.

Columns and labels:
MCF-7 cells = assay: MTT cytotoxicity assay, MCF-7; format: cell-based, human; details: read-out: GI50 ± SD (μM) MCF-7
HCT-116 cells = assay: MTT cytotoxicity assay, HCT-116; format: cell-based, human; details: read-out: GI50 ± SD (μM) HCT-116
recombinant human TDP1 = recombinant human TDP1 (Homo sapiens, UniProt Q9NUW8); assay: TDP1 gel-based inhibition assay; format: biochemical
Sequence of recombinant human TDP1 (Q9NUW8 whole entry): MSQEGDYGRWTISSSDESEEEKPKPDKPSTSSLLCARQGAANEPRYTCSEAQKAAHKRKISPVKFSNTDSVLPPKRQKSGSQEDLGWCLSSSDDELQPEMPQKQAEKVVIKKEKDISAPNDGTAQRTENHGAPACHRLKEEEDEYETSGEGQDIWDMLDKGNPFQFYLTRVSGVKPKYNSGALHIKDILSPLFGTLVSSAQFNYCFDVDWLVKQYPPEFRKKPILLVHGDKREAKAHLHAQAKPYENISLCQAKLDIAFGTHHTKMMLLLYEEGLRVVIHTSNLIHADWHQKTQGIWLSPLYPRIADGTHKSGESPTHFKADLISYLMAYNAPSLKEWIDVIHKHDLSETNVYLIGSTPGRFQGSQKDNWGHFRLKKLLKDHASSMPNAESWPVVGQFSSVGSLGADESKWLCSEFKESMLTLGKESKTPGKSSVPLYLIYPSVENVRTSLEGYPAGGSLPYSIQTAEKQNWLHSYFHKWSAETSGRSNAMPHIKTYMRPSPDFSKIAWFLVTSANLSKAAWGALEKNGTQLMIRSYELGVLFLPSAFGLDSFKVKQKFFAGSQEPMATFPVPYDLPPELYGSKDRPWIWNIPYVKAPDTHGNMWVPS

recombinant TOP1 = molecular target: T1, recombinant TOP1 (Homo sapiens, UniProt P11387); assay: TOP1-mediated DNA cleavage assay; format: biochemical; details: TOP1 cleavage inhibitory activity, semiquantitative relative to CPT at 1 μM; Table 1
T1 sequence (P11387 1-765): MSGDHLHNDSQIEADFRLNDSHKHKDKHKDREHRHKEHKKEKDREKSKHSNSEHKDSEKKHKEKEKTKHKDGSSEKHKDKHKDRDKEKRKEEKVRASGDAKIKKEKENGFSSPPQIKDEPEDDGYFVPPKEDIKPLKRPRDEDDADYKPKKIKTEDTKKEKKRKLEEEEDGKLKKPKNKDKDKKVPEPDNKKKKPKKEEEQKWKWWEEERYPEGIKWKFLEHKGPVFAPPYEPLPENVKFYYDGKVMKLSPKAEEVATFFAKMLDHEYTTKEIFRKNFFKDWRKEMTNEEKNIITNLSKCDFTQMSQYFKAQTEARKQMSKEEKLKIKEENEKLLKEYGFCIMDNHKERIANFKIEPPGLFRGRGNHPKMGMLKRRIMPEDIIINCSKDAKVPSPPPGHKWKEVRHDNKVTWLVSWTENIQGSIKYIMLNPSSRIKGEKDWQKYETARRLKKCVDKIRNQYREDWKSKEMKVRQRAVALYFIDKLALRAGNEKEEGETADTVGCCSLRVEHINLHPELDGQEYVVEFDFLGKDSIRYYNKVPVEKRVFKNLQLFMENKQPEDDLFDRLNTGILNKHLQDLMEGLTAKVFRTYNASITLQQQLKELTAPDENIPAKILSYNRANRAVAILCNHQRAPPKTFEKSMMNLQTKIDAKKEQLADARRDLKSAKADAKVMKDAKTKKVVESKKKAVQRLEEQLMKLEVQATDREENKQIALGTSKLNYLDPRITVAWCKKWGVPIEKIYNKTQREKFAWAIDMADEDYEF

SMILES | GI50 (MCF-7 cells; MTT assay, 72 h, Table 1) | GI50 (HCT-116 cells; MTT assay, 72 h, Table 1) | IC50 (recombinant human TDP1; read-out: IC50 (μM) for TDP1, gel-based assay, Table 1) | GI50 (MCF-7 cells; Homo sapiens, MCF7, 72 h) | TOP1 Inhibition (recombinant TOP1) | GI50 (HCT-116 cells; Homo sapiens, HCT-116, 72 h) | IC50 (recombinant human TDP1)
COc1cc2c(=O)n(C)c3c4cc5c(cc4ccc3c2cc1OC)OCO5 [Compound 4, oxynitidine, reference compound] | > 100 µM | 75 ± 4.4 µM | > 111 µM |  |  |  | 
COc1cc2c(=O)n(C)c3c4cc5c(cc4c(OC(C)=O)cc3c2cc1OC)OCO5 [Compound 10, 2,3-Dimethoxy-12-methyl-13-oxo-12,13-dihydro-[1,3]dioxolo[4’,5’:4,5]benzo[1,2-c]phenanthridin-6-yl acetate] |  |  |  | > 100 µM | + (+, between 20% and 50% activity) | > 100 µM | > 111 µM
COc1cc2c(=O)n(C)c3c4cc5c(cc4c(O)cc3c2cc1OC)OCO5 [Compound 11, 6-Hydroxy-2,3-dimethoxy-12-methyl-[1,3]dioxolo[4’,5’:4,5]benzo[1,2-c]phenanthridin-13(12H)-one] |  |  |  | > 100 µM | 0 | > 100 µM | > 111 µM
CNCCOc1cc2c3cc(OC)c(OC)cc3c(=O)n(C)c2c2cc3c(cc12)OCO3 [Compound 12, 2,3-Dimethoxy-12-methyl-6-(2-(methylamino)ethoxy)-[1,3]dioxolo[4’,5’:4,5]benzo[1,2-c]phenanthridin-13(12H)-one] |  |  |  | 2.2 ± 0.06 µM | +++ (+++, between 75% and 95% activity) | 1.3 ± 0.12 µM | > 111 µM
CNCCCOc1cc2c3cc(OC)c(OC)cc3c(=O)n(C)c2c2cc3c(cc12)OCO3 [Compound 13, 2,3-Dimethoxy-12-methyl-6-(3-(methylamino)propoxy)-[1,3]dioxolo[4’,5’:4,5]benzo[1,2-c]phenanthridin-13(12H)-one] |  |  |  | 33 ± 5 µM | + (+, between 20% and 50% activity) | 12 ± 1.2 µM | > 111 µM
COc1cc2c(=O)n(C)c3c4cc5c(cc4c(OCCN(C)C)cc3c2cc1OC)OCO5 [Compound 14, 6-(2-(Dimethylamino)ethoxy)-2,3-dimethoxy-12-methyl-[1,3]dioxolo[4’,5’:4,5]benzo[1,2-c]phenanthridin-13(12H)-one] |  |  |  | 8.5 ± 0.91 µM | + (+, between 20% and 50% activity) | 4.6 ± 0.41 µM | 37 to 111 µM
COc1cc2c(=O)n(C)c3c4cc5c(cc4c(OCCCN(C)C)cc3c2cc1OC)OCO5 [Compound 15, 6-(3-(Dimethylamino)propoxy)-2,3-dimethoxy-12-methyl-[1,3]dioxolo[4’,5’:4,5]benzo[1,2-c]phenanthridin-13(12H)-one] |  |  |  | 54 ± 4.9 µM | + (+, between 20% and 50% activity) | 36 ± 1.3 µM | > 111 µM
COc1cc2c(=O)n(C)c3c4cc5c(cc4c(OCCN4CCCCC4)cc3c2cc1OC)OCO5 [Compound 16, 2,3-Dimethoxy-12-methyl-6-(2-(piperidin-1-yl)ethoxy)-[1,3]dioxolo[4’,5’:4,5]benzo[1,2-c]phenanthridin-13(12H)-one] |  |  |  | 22 ± 7.7 µM | + (+, between 20% and 50% activity) | > 100 µM | > 111 µM
COc1cc2c(=O)n(C)c3c4cc5c(cc4c(OCCCN4CCCCC4)cc3c2cc1OC)OCO5 [Compound 17, 2,3-Dimethoxy-12-methyl-6-(3-(piperidin-1-yl)propoxy)-[1,3]dioxolo[4’,5’:4,5]benzo[1,2-c]phenanthridin-13(12H)-one] |  |  |  | 6.6 ± 1.3 µM | ++ (++, between 50% and 75% activity) | 1.8 ± 0.32 µM | > 111 µM
COc1cc2c(=O)n(C)c3c4cc5c(cc4c(OCCN4CCN(C)CC4)cc3c2cc1OC)OCO5 [Compound 18, 2,3-Dimethoxy-12-methyl-6-(2-(4-methylpiperazin-1-yl)ethoxy)-[1,3]dioxolo[4’,5’:4,5]benzo[1,2-c]phenanthridin-13(12H)-one] |  |  |  | 7 ± 1.3 µM | + (+, between 20% and 50% activity) | 7.7 ± 0.56 µM | 37 to 111 µM
